We go through 2 compounds from patent US20220362223A1, “ORAL FORMULATION OF X842” (Cinclus Pharma Holding AB, priority 2019, published 2022).

≈ marks a conversion by molar mass, not a printed value.

Series [1] has as its system gastric acid production. Conditions: Phase I and II studies; cited from earlier work.
Series [2] in a line: clinical. Also noted: species or system human. Conditions: in vivo. How it is done: (§1) X842 is a prodrug of linaprazan, which was disclosed in WO 99/55706 and previously studied in Phase I and II studies. […] A clinical Phase I study has shown that administration of a single dose of X842 can maintain the intragastric acidity above pH 4 for 24 hours. X842 is therefore tailored for patients with severe erosive gastroesophageal reflux disease (eGERD).
(§2) It is estimated that this requires a minimal plasma concentration (Cmin) of linaprazan of at least about 240 nmol/L after 22 hours. At such doses, a once daily administration of the formulation would be sufficient. Therefore, in another embodiment, the invention relates to a formulation as disclosed herein, wherein the formulation provides a Cmin of linaprazan in a human of at least about 240 nmol/L after 22 hours following administration of the oral formulation to said human. In a preferred embodiment, the invention relates to a formulation as disclosed herein, wherein a unit dose of the formulation provides a Cmin of linaprazan in a human of at least about 240 nmol/L after 22 hours following administration of the oral formulation to said human.

The nature of series [3]: Solubility of X842 in water. Type of series: physicochemical. An excerpt: The solubility of X842 is very low. […] This low solubility is problematic for solid oral formulations, and especially for solid immediate release formulations where the active ingredient should dissolve in only a short time period.
Series [4] deals with gastric acid production. Description: Clinical Phase I study of X842: intragastric pH / gastric acid control. Type of series: in vivo, human. The method, then: as §1, §2

A word on the solubility: it is the dissolved amount per volume that the medium holds. Read a high solubility as a readily soluble substance.

In the case of `Cc1cccc(C)c1CNc1cc(C(=O)NCCO)cn2c(C)c(C)nc12` [linaprazan], in series [1], the “duration of acid inhibition” value is recorded as “too short duration of acid inhibition”; the “elimination from the body” value is recorded as “quickly eliminated from the body”; the “onset of action / effect at first dose” value was “fast onset of action and full effect at first dose”; the tolerability result is “well tolerated”. For the same compound, the concentration at 22 h in series [2] (human) was no less than 240 nM.
For `Cc1cccc(C)c1CNc1cc(C(=O)NCCOC(=O)CCCC(=O)O)cn2c(C)c(C)nc12` [Example X842, 5-{2[({8-[(2,6-dimethylbenzyl)amino]-2,3-dimethylimidazo[1,2-a]pyridine-6-yl}carbonyl)-amino]ethoxy}-5-oxopentanoic acid], the solubility in water entry in series [3] (pH 6.8) is listed as “practically insoluble”. Further, the solubility in series [3] (water, simulated gastric fluid, pH 1.0) was roughly 113 µg/mL (≈ 235 µM). Further, the “half-life in the body” value in series [2] (human) was “longer half-life”. Besides, in series [2], the “metabolism after absorption into the blood stream” value is given as “quickly metabolized into linaprazan”; the “plasma concentration of X842” value was “only very low and difficult to determine”. The “control of gastric acid production” value in series [4] (compared to linaprazan) is given as “total control of the gastric acid production for a longer time”. Moreover, the “time intragastric acidity is maintained above pH 4” value in series [4] (single dose, clinical Phase I) is on record as 24 hours.
